# Measured values reported in article PMC3725577 (Bioorganic & medicinal chemistry letters, 2011).
# “Also recorded” adds a separate entry of the source.
# Key:
# HIV-1 NL4-3 = assay: Single round HIV infectivity in HeLa37 cells; format: cell-based
# HeLa37 cells = assay: Cell viability; format: cell-based; conditions: concentrations as high as 100 µg/mL
Structure (SMILES),anti-HIV activity (in words) (HIV-1 NL4-3),cytotoxicity (in words) (HeLa37 cells)
"CC1(C)CCc2c(O)c(C(=O)CC(=O)c3ccccc3)c(O)c(C=O)c2O1 [Compound 12, 6-(1,3-Dioxo-3-phenylpropyl)-2,2-dimethyl-8-formylchroman-5,7-diol]",good activity,highest cytotoxicity; also recorded: significant cytotoxicity at the higher concentrations tested
"CC(=O)c1c(O)c2c(c(C(C)=O)c1O)OC(C)(C)CC2 [Compound 6, 6,8-diacetyl-2,2-dimethylchroman-5,7-diol]",least active,–
